In ChEMBL document CHEMBL1132089, “Probing the role of interfacial residues in a dimerization inhibitor of HIV-1 protease” (Bioorg Med Chem Lett, 1999):
Where a SMILES comes first, the peptide text is derived from it. Bridges are numbered along the chain shown (N, C = ends). Roman numbers before positions name the chains, in order. The star is where a group is joined. C16 diacid = O=C(O)CCCCCCCCCCCCCCC(=O)*

Biological target: Human immunodeficiency virus type 1 protease (Human immunodeficiency virus 1) (UniProt Q72874)
Assay: Percent inhibition of HIV-1 protease at a concentration level of 25 nM relative to compound I was determined by UV absorbance

Row | SMILES | inhibition
1 | CC[C@H](C)[C@H](NC(=O)[C@H](CCC(N)=O)NC(=O)[C@@H]1CCCN1C(=O)CCCCCCCCCCCCCCC(=O)N[C@@H](C)C(=O)N[C@H](C(=O)N[C@@H](CC(C)C)C(=O)N[C@@H](CC(N)=O)C(=O)N[C@@H](Cc1ccccc1)C(=O)O)[C@H](C)O)C(=O)N[C@H](C(=O)N[C@@H](CC(C)C)C(=O)N[C@@H](Cc1c[nH]c2ccccc12)C(=O)O)[C@@H](C)O | 1.1%
2 | CC[C@H](C)[C@H](NC(=O)[C@H](CCC(N)=O)NC(=O)[C@@H]1CCCN1C(=O)CCCCCCCCCCCCCCC(=O)N[C@@H](CO)C(=O)N[C@H](C(=O)N[C@@H](CC(C)C)C(=O)N[C@@H](CC(N)=O)C(=O)N[C@@H](Cc1ccccc1)C(=O)O)[C@@H](C)O)C(=O)N[C@H](C(=O)N[C@@H](CC(C)C)C(=O)N[C@@H](C)C(=O)O)[C@@H](C)O (I: PQITLA-OH / II: STLNF-OH; linker I:N-II:N via C16 diacid) | 26%
3 | CC(C)C[C@H](NC(=O)[C@@H](NC(=O)[C@H](CO)NC(=O)CCCCCCCCCCCCCCC(=O)N1CCC[C@H]1C(=O)N[C@@H](CCC(N)=O)C(=O)N[C@@H](C)C(=O)N[C@H](C(=O)N[C@@H](CC(C)C)C(=O)N[C@@H](Cc1c[nH]c2ccccc12)C(=O)O)[C@@H](C)O)[C@H](C)O)C(=O)N[C@@H](CC(N)=O)C(=O)N[C@@H](Cc1ccccc1)C(=O)O | 2.7%
4 | CC[C@H](C)[C@H](NC(=O)[C@H](CCC(N)=O)NC(=O)[C@@H]1CCCN1C(=O)CCCCCCCCCCCCCCC(=O)N[C@@H](CO)C(=O)N[C@H](C(=O)N[C@@H](CC(C)C)C(=O)N[C@@H](C)C(=O)N[C@@H](Cc1ccccc1)C(=O)O)[C@H](C)O)C(=O)N[C@H](C(=O)N[C@@H](CC(C)C)C(=O)N[C@@H](Cc1c[nH]c2ccccc12)C(=O)O)[C@@H](C)O | 1.9%
5 | CC[C@H](C)[C@H](NC(=O)[C@H](CCC(N)=O)NC(=O)[C@@H]1CCCN1C(=O)CCCCCCCCCCCCCCC(=O)N[C@@H](CO)C(=O)N[C@H](C(=O)N[C@@H](CC(C)C)C(=O)N[C@@H](CC(N)=O)C(=O)N[C@@H](C)C(=O)O)[C@H](C)O)C(=O)N[C@H](C(=O)N[C@@H](CC(C)C)C(=O)N[C@@H](Cc1c[nH]c2ccccc12)C(=O)O)[C@@H](C)O | 3.5%
6 | CC[C@H](C)[C@H](NC(=O)[C@H](C)NC(=O)[C@@H]1CCCN1C(=O)CCCCCCCCCCCCCCC(=O)N[C@@H](CO)C(=O)N[C@H](C(=O)N[C@@H](CC(C)C)C(=O)N[C@@H](CC(N)=O)C(=O)N[C@@H](Cc1ccccc1)C(=O)O)[C@@H](C)O)C(=O)N[C@H](C(=O)N[C@@H](CC(C)C)C(=O)N[C@@H](Cc1c[nH]c2ccccc12)C(=O)O)[C@@H](C)O (I: PAITLW-OH / II: STLNF-OH; linker I:N-II:N via C16 diacid) | 0.8%
7 | CC[C@H](C)[C@H](NC(=O)[C@H](CCC(N)=O)NC(=O)[C@@H]1CCCN1C(=O)CCCCCCCCCCCCCCC(=O)N[C@@H](CO)C(=O)N[C@H](C(=O)N[C@@H](C)C(=O)N[C@@H](CC(N)=O)C(=O)N[C@@H](Cc1ccccc1)C(=O)O)[C@H](C)O)C(=O)N[C@H](C(=O)N[C@@H](CC(C)C)C(=O)N[C@@H](Cc1c[nH]c2ccccc12)C(=O)O)[C@@H](C)O | 4.5%
8 | CC[C@H](C)[C@H](NC(=O)[C@H](CCC(N)=O)NC(=O)[C@@H]1CCCN1C(=O)CCCCCCCCCCCCCCC(=O)N[C@@H](CO)C(=O)N[C@H](C(=O)N[C@@H](CC(C)C)C(=O)N[C@@H](CC(N)=O)C(=O)N[C@@H](Cc1ccccc1)C(=O)O)[C@@H](C)O)C(=O)N[C@@H](C)C(=O)N[C@@H](CC(C)C)C(=O)N[C@@H](Cc1c[nH]c2ccccc12)C(=O)O (I: PQIALW-OH / II: STLNF-OH; linker I:N-II:N via C16 diacid) | 3.3%
9 | CC[C@H](C)[C@H](NC(=O)[C@H](CCC(N)=O)NC(=O)[C@@H]1CCCN1C(=O)CCCCCCCCCCCCCCC(=O)N[C@@H](CO)C(=O)N[C@@H](C)C(=O)N[C@@H](CC(C)C)C(=O)N[C@@H](CC(N)=O)C(=O)N[C@@H](Cc1ccccc1)C(=O)O)C(=O)N[C@H](C(=O)N[C@@H](CC(C)C)C(=O)N[C@@H](Cc1c[nH]c2ccccc12)C(=O)O)[C@@H](C)O (I: PQITLW-OH / II: SALNF-OH; linker I:N-II:N via C16 diacid) | 3.3%
10 | CC[C@H](C)[C@H](NC(=O)[C@H](CCC(N)=O)NC(=O)[C@@H]1CCCN1C(=O)CCCCCCCCCCCCCCC(=O)N[C@@H](CO)C(=O)N[C@H](C(=O)N[C@@H](CC(C)C)C(=O)N[C@@H](CC(N)=O)C(=O)N[C@@H](Cc1ccccc1)C(=O)O)[C@H](C)O)C(=O)N[C@H](C(=O)N[C@@H](C)C(=O)N[C@@H](Cc1c[nH]c2ccccc12)C(=O)O)[C@@H](C)O | 1.6%
